According to PubChem BioAssay AID296 (DTP/NCI, 2004):
Values joined by “and” are separate entries in the source; they are usually repeats but may differ in a detail not shown here. Identical values can stand only once. Records with an inconclusive call do not appear.

Tested on: MX-1 breast xenograft, nude mice, tumor weight T/C
Assay: NCI In Vivo Anticancer Drug Screen. Data for tumor model Human Mammary Carcinoma MX-1 Xenograft (intrarenal inoculation) in NU/NU Swiss (nude) mice
Conditions: endpoint: mean tumor weight change, higher = larger tumour
Procedure, shortened: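 Compound dosed to mice with transplantable tumor; vehicle group as control. Endpoint survival or tumour size, reported as T/C.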

[1] = dose: 300.0 mg/kg/injection, schedule: Q04DX003 (sc), vehicle: Klucel (hydroxypropylcellulose) (HPC)

## CCOC(=O)C(N)C[S][Sn]([CH3])([CH3])[Cl] (stereo unspecified)
dose: 75.0 mg/kg/injection, schedule: Q04DX003 (sc), vehicle: saline
  T/C: 155 % of control

## N#CN=[N+]([O-])c1ccc(C(=O)O)cc1
dose: 11.25 mg/kg/injection, schedule: Q04DX003 (sc), vehicle: Klucel (hydroxypropylcellulose) (HPC)
  T/C: 124 % of control
dose: 22.5 mg/kg/injection, schedule: Q04DX003 (sc), vehicle: Klucel (hydroxypropylcellulose) (HPC)
  T/C: 87 % of control
dose: 45.0 mg/kg/injection, schedule: Q04DX003 (sc), vehicle: Klucel (hydroxypropylcellulose) (HPC)
  T/C: 103 % of control

## COCC(O)Cn1ccnc1[N+](=O)[O-] (stereo unspecified)
dose: 300.0 mg/kg/injection, schedule: Q04DX003 (sc), vehicle: suspension in saline
  T/C: 202 % of control
dose: 600.0 mg/kg/injection, schedule: Q04DX003 (sc), vehicle: suspension in saline
  T/C: 95 % of control
dose: 1200.0 mg/kg/injection, schedule: Q04DX003 (sc), vehicle: suspension in saline
  T/C: 108 % of control

## Brc1ccc(C[N+]23CN4CN(CN(C4)C2)C3)cc1
dose: 75.0 mg/kg/injection, schedule: Q04DX003 (sc), vehicle: saline with Tween-80
  T/C: 84 % of control
dose: 150.0 mg/kg/injection, schedule: Q04DX003 (sc), vehicle: saline with Tween-80
  T/C: 99 % of control
dose: 300.0 mg/kg/injection, schedule: Q04DX003 (sc), vehicle: saline with Tween-80
  T/C: 89 % of control
dose: 600.0 mg/kg/injection, schedule: Q04DX003 (sc), vehicle: saline with Tween-80
  T/C: 73 % of control

## COc1ccc2cc1Oc1ccc(cc1)C[C@H]1c3cc(c(OC)cc3CCN1C)Oc1c(OC)c(OC)cc3c1[C@H](C2)N(C)CC3
dose: 100.0 mg/kg/injection, schedule: Q01DX010 (sc), vehicle: saline with Tween-80
  T/C: 115 % of control
dose: 200.0 mg/kg/injection, schedule: Q01DX010 (sc), vehicle: saline with Tween-80
  T/C: 42 % of control
dose: 400.0 mg/kg/injection, schedule: Q01DX010 (sc), vehicle: saline with Tween-80
  T/C: 83 % of control
dose: 800.0 mg/kg/injection, schedule: Q01DX010 (sc), vehicle: saline with Tween-80
  T/C: 44 % of control

## O=c1[nH]cnc2n[nH]nc12
dose: 100.0 mg/kg/injection, schedule: Q04DX003 (sc), vehicle: Klucel (hydroxypropylcellulose) (HPC)
  T/C: 54 % of control
dose: 200.0 mg/kg/injection, schedule: Q04DX003 (sc), vehicle: Klucel (hydroxypropylcellulose) (HPC)
  T/C: 27 % of control
dose: 400.0 mg/kg/injection, schedule: Q04DX003 (sc), vehicle: Klucel (hydroxypropylcellulose) (HPC)
  T/C: 48 % of control
dose: 800.0 mg/kg/injection, schedule: Q04DX003 (sc), vehicle: Klucel (hydroxypropylcellulose) (HPC)
  T/C: 31 % of control

## COc1cccc2c1C(=O)c1c(O)c3c(c(O)c1C2=O)C[C@@](O)(C(=O)COC(=O)c1cccnc1)C[C@@H]3OC1CC(N)C(O)C(C)O1 (stereo partly specified)
dose: 6.0 mg/kg/injection, schedule: Q04DX003 (sc), vehicle: saline
  T/C: 52 % of control and 58 % of control
dose: 12.0 mg/kg/injection, schedule: Q04DX003 (sc), vehicle: saline
  T/C: 15 % of control and 26 % of control
dose: 24.0 mg/kg/injection, schedule: Q04DX003 (sc), vehicle: saline
  T/C: 20 % of control

## [Cl][Pt+2][Cl].[NH-]CC1(C[NH-])CCC1
dose: 3.12 mg/kg/injection, schedule: Q04DX003 (sc), vehicle: suspension in saline
  T/C: 48 % of control
dose: 6.25 mg/kg/injection, schedule: Q04DX003 (sc), vehicle: saline
  T/C: 6 % of control
dose: 6.25 mg/kg/injection, schedule: Q04DX003 (sc), vehicle: suspension in saline
  T/C: 19 % of control and 29 % of control
dose: 12.5 mg/kg/injection, schedule: Q04DX003 (sc), vehicle: suspension in saline
  T/C: 6 % of control and 16 % of control
dose: 25.0 mg/kg/injection, schedule: Q04DX003 (sc), vehicle: suspension in saline
  T/C: -74 % of control and -54 % of control

## O=C1c2ccccc2C(=O)c2c(NCCNCCO)ccc(NCCNCCO)c21
dose: 4.0 mg/kg/injection, schedule: Q01DX010 (ip), vehicle: water
  T/C: 59 % of control
dose: 8.0 mg/kg/injection, schedule: Q01DX010 (ip), vehicle: water
  T/C: 80 % of control
dose: 13.33 mg/kg/injection, schedule: Q04DX003 (ip), vehicle: water
  T/C: 45 % of control
dose: 13.33 mg/kg/injection, schedule: Q04DX003 (sc), vehicle: water
  T/C: 65 % of control
dose: 16.0 mg/kg/injection, schedule: Q01DX010 (ip), vehicle: water
  T/C: 61 % of control
dose: 16.0 mg/kg/injection, schedule: Q01DX010 (sc), vehicle: water
  T/C: 13 % of control and 25 % of control
dose: 26.65 mg/kg/injection, schedule: Q04DX003 (sc), vehicle: water
  T/C: 32 % of control
dose: 32.0 mg/kg/injection, schedule: Q01DX010 (ip), vehicle: water
  T/C: 20 % of control
dose: 53.3 mg/kg/injection, schedule: Q04DX003 (ip), vehicle: water
  T/C: 31 % of control
dose: 53.3 mg/kg/injection, schedule: Q04DX003 (sc), vehicle: water
  T/C: 31 % of control

## CC(=O)OCC1OC(n2ccc(N)nc2=O)C(OC(C)=O)C1OC(C)=O (stereo unspecified)
dose: 150.0 mg/kg/injection, schedule: Q04DX003 (sc), vehicle: suspension in saline
  T/C: 89 % of control
dose: 300.0 mg/kg/injection, schedule: Q04DX003 (sc), vehicle: saline
  T/C: 107 % of control
dose: 600.0 mg/kg/injection, schedule: Q04DX003 (sc), vehicle: saline
  T/C: 82 % of control
dose: 1200.0 mg/kg/injection, schedule: Q04DX003 (sc), vehicle: saline
  T/C: 84 % of control
dose: 2400.0 mg/kg/injection, schedule: Q04DX003 (sc), vehicle: suspension in saline
  T/C: 14 % of control

## Nc1ccn(C2OC(CO)C(O)C2O)c(=O)n1 (stereo unspecified)
dose: 7.5 mg/kg/injection, schedule: Q01DX010 (sc), vehicle: water
  T/C: 53 % of control
dose: 7.81 mg/kg/injection, schedule: Q01DX010 (sc), vehicle: water
  T/C: 62 % of control
dose: 15.0 mg/kg/injection, schedule: Q01DX010 (sc), vehicle: water
  T/C: 27 % of control
dose: 15.63 mg/kg/injection, schedule: Q01DX010 (sc), vehicle: water
  T/C: 28 % of control and 30 % of control
dose: 30.0 mg/kg/injection, schedule: Q01DX010 (sc), vehicle: water
  T/C: 18 % of control
dose: 31.25 mg/kg/injection, schedule: Q01DX010 (sc), vehicle: water
  T/C: 9 % of control and 12 % of control
dose: 60.0 mg/kg/injection, schedule: Q01DX010 (sc), vehicle: water
  T/C: 9 % of control
dose: 600.0 mg/kg/injection, schedule: Q04DX003 (sc), vehicle: water
  T/C: 41 % of control

## CC1CC(C)CC(C)C(O)/C(C#N)=C/C=C/CC(C2CCCC2C(=O)O)OC(=O)CC(O)C(C)C1 (stereo unspecified)
dose: 6.0 mg/kg/injection, schedule: Q04DX003 (sc), vehicle: Klucel (hydroxypropylcellulose) (HPC)
  T/C: 87 % of control
dose: 12.0 mg/kg/injection, schedule: Q04DX003 (sc), vehicle: Klucel (hydroxypropylcellulose) (HPC)
  T/C: 79 % of control

## O=C(NO)c1cc(O)c(O)c(O)c1
dose: 200.0 mg/kg/injection, schedule: Q04DX003 (sc), vehicle: distilled water + Tween-80
  T/C: 64 % of control
dose: 400.0 mg/kg/injection, schedule: Q04DX003 (sc), vehicle: distilled water + Tween-80
  T/C: 109 % of control
dose: 800.0 mg/kg/injection, schedule: Q04DX003 (sc), vehicle: distilled water + Tween-80
  T/C: 122 % of control

## CCOC(=O)N(C)N=NC
dose: 15.0 mg/kg/injection, schedule: Q04DX003 (ip), vehicle: saline
  T/C: 97 % of control
dose: 30.0 mg/kg/injection, schedule: Q04DX003 (ip), vehicle: saline
  T/C: 95 % of control
dose: 60.0 mg/kg/injection, schedule: Q04DX003 (ip), vehicle: saline
  T/C: 71 % of control
dose: 120.0 mg/kg/injection, schedule: Q04DX003 (ip), vehicle: saline
  T/C: 52 % of control

## O=C1c2c(O)cccc2-c2nn(CCNCCO)c3ccc(NCCNCCO)c1c23
dose: 11.0 mg/kg/injection, schedule: Q04DX003 (ip), vehicle: water
  T/C: -100 % of control

## Cc1ccc2c(c1)C(=O)N(CC[P+](c1ccccc1)(c1ccccc1)c1ccccc1)C2=O
dose: 25.0 mg/kg/injection, schedule: Q04DX003 (sc), vehicle: Klucel (hydroxypropylcellulose) (HPC)
  T/C: 110 % of control

## COC1CC2C=C(C)/C=C/C=C/C(=O)NC(c3ccccc3)C/C=C/CCC(O)CC(=O)C2=C1O (stereo unspecified)
dose: 75.0 mg/kg/injection, schedule: Q04DX003 (sc), vehicle: Klucel (hydroxypropylcellulose) (HPC)
  T/C: 41 % of control
dose: 150.0 mg/kg/injection, schedule: Q04DX003 (sc), vehicle: Klucel (hydroxypropylcellulose) (HPC)
  T/C: 71 % of control
[1]
  T/C: 50 % of control

## CC(C)(C)c1ccc(CN2CCN(C(c3ccccc3)c3ccc(Cl)cc3)CC2)cc1 (stereo unspecified)
dose: 4.5 mg/kg/injection, schedule: Q01DX010 (sc), vehicle: Klucel (hydroxypropylcellulose) (HPC)
  T/C: 96 % of control
dose: 9.0 mg/kg/injection, schedule: Q01DX010 (sc), vehicle: Klucel (hydroxypropylcellulose) (HPC)
  T/C: 101 % of control
dose: 18.0 mg/kg/injection, schedule: Q01DX010 (sc), vehicle: Klucel (hydroxypropylcellulose) (HPC)
  T/C: 117 % of control
dose: 36.0 mg/kg/injection, schedule: Q01DX010 (sc), vehicle: Klucel (hydroxypropylcellulose) (HPC)
  T/C: 101 % of control
[1]
  T/C: 102 % of control
dose: 600.0 mg/kg/injection, schedule: Q04DX003 (sc), vehicle: Klucel (hydroxypropylcellulose) (HPC)
  T/C: 106 % of control
dose: 1200.0 mg/kg/injection, schedule: Q04DX003 (sc), vehicle: Klucel (hydroxypropylcellulose) (HPC)
  T/C: 100 % of control
